Data taken from paper PMC9343874, “Comparative Pharmacokinetics of Cinobufacini Capsule and Injection by UPLC-MS/MS” (Frontiers in Pharmacology, 2022).
Like-named read-outs stand apart in the source and are kept apart here.

Key:
[1] = Pharmacokinetic study in rats after oral administration of cinobufacini capsule (UPLC-MS/MS of plasma); type: in vivo, rat; details: for AUC(0-inf) / AUC(0-t) / Cmax / Tmax / CL/F / MRT last / MRT inf / half-life / Vd/F: male, Sprague-Dawley, in vivo, rat plasma, mean ± SD, n = 6; for CL/F: read-out: CLz/F (converted); for MRT last: read-out: MRT0-t; for MRT inf: read-out: MRT0-∞; for half-life: read-out: T1/2z (converted); for Vd/F: read-out: Vz/F
Method in brief: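 Male SD rats (200–220 g), fasted 12 h, six per group; cinobufacini capsule given orally at three doses or injection intravenously. Retro-orbital plasma sampled 0.05–10 h, extracted with ethyl acetate plus internal standard, quantified by UPLC-MS/MS (ESI+, MRM); parameters calculated by non-compartmental-style software as mean ± SD.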

[2] = Pharmacokinetic study in rats after intravenous administration of cinobufacini injection (UPLC-MS/MS of plasma); type: in vivo, rat; details: for concentrations in most rat plasma samples relative to LLOQ: after intravenous administration of cinobufacini injection, pharmacokinetic parameters could not be calculated; for detection in rat plasma: cinobufacini injection group, intravenous
Method: Male Sprague–Dawley rats (weighing 200–220 g) of SPF grade were offered by Sippr/BK laboratory Animal, Corp., Ltd. (Shanghai, China) and fed in the Laboratory Animal Center of the Shanghai University of Traditional Chinese Medicine. All the rats were kept under environmentally controlled conditions with constant temperature (22–24°C) and humidity (60–65%). The animal experiment program in the present research was approved by the Animal Committee of the Shanghai University of Traditional Chinese Medicine (PZSHUTCM210618012).
An Agilent 1290 liquid chromatographic system includes a G4220A quaternary pump, a G1326C column incubator, a G4226A automatic sampler, and a G1330B degasser. The column temperature was set to 35°C. A measure of 5 µL of samples were separated in an Agilent SB-C18 column (2.1 mm ×50 mm, 1.8 μm) and eluted at 0.3 ml/min, followed by gradient elution with water (0.1% V/V formic acid) (A) and acetonitrile (B) (0–1 min, 20%–20% B; 1–3.5 min, 20%–80% B; 4–4.1 min, 80%-20% B; 4.1–6 min, 20% B). The total run time was 6 minutes.
An Agilent 1290 Infinity series UPLC system was combined with an Agilent 6460 series triple quadrupole mass spectrometer (Agilent Technologies, Santa Clara, CA, United States) to quantify all 13 analytes in an ESI-positive ionization mode. Quantitative analysis was performed in an MRM mode. The mass spectrum conditions were as follows: capillary voltage, 4000V; drying gas (N2), gas flow rate: 10 L/min; sprayer, 30 psi; gas temperature 350°C; The delta EMV (+) 200 V; collision gas (N2); dwell time, 25 ms. Agilent’s MassHunter Workstation software was used for data collection, peak area calculation, and quantitative analysis.
A measure of 50 µL of the plasma sample was mixed with 10 µL of the internal standard solution (345 ng/ml) in a 1.5-ml centrifuge tube and vortexed for 5 min. The samples were extracted by 500 µL of ethyl acetate for 5 min and centrifuged at 4°C for 10 min (18000 rpm). All the supernatants were collected into another 1.5-ml centrifuge tube, dried under a gentle stream of nitrogen at 37°C, and then added with 50 µL of 80% methanol for resolution. The resolution samples were centrifuged at 4°C for 10 min (18000 rpm), and 5 µL supernatant was extracted and injected for analysis.
Twenty-four male Sprague–Dawley rats (weigh 200–220 g) were divided into four groups with six rats in each group randomly, including three capsule groups at three different doses and one injection group. In the instructions for cinobufacini capsule and injection, the clinical dosage for adults is 2 g per 70 kg orally and 20 ml per 70 kg intravenously, converting to rat doses of 180 mg/kg and 1.8 ml/kg, respectively.
In the pre-experiments, we compared cinobufacini capsule of 180 mg/kg (one-time clinical dose) and 900 mg/kg (five times of clinical dose) and Cinobufacini injection of 1.8 ml/kg, but concentrations of some compounds in plasma were too low and difficult to be quantified. […] The experimental rats were led to fast the night and were free to get access to water for 12 h before the pharmacokinetic study. After administration, blood samples (approximately 150 μL) of rats were collected via retro-orbital sinus into heparinized centrifuge tubes at 0.05, 0.083, 0.25, 0.5, 0.75, 1, 2, 4, 6, 8, and 10 h. After centrifugation at 5,000 rpm for 10 min, the plasma was transferred to 1.5-ml polypropylene tubes and stored at −80°C until UPLC-MS/MS analysis.
GraphPad Prism software (version 8.0.2) was used to draw the mean plasma concentration–time curves of all analytes. The pharmacokinetic parameters were calculated by DAS 3.2.8 software. Meanwhile, the pharmacokinetic data on rats were presented as mean ± standard deviation (SD). Differences of pharmacokinetic parameters between groups were analyzed by the t-test using SPSS software (version 26.0). Differences were considered significant statistically when the p-values were <0.05 and very significant statistically when the p-values were <0.01.

[3] = Stability of analytes in rat plasma QC samples under storage conditions; type: physicochemical; details: n = 6; for Stability during 24 h at 4°C, RE: post-treatment storage in autosampler; for −80°C for 30 days, RE / Three freeze–thaw cycles, RE: rat plasma; for −80°C for 30 days, RE: long-term; for Three freeze–thaw cycles, RE: −80°C to room temperature
Method in brief: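 QC samples at low, medium and high levels (n=6) were tested after 24 h in the autosampler at 4 °C, after three freeze–thaw cycles from −80 °C to room temperature, and after 30 days at −80 °C. Concentrations were read from daily calibration curves. Stability was accepted when RE and RSD were within ±15% of nominal.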

[4] = oral cinobufacini capsule 0.9 g/kg (low)
[5] = oral cinobufacini capsule 1.8 g/kg (medium)
[6] = oral cinobufacini capsule 3.6 g/kg (high)
[7] = high QC level (249.58–250.28 ng/ml)
[8] = medium QC level (49.92–50.06 ng/ml)

Row | Compound | AUC(0-inf) [1, 4] | AUC(0-t) [1, 4] | Cmax [1, 4] | Tmax [1, 4] | CL/F [1, 4] | MRT last [1, 4] | MRT inf [1, 4] | half-life [1, 4] | Vd/F [1, 4] | AUC(0-inf) [1, 5] | AUC(0-t) [1, 5] | Cmax [1, 5] | Tmax [1, 5] | CL/F [1, 5] | MRT last [1, 5] | MRT inf [1, 5] | half-life [1, 5] | Vd/F [1, 5] | AUC(0-inf) [1, 6] | AUC(0-t) [1, 6] | further results
1 | C[C@]12CC[C@H](O)C[C@H]1CC[C@@H]1[C@@H]2CC[C@]2(C)[C@@H](c3ccc(=O)oc3)CC[C@]12O [BF, bufalin] | 143 ± 79.4 ng·h/mL | 139 ± 71.9 ng·h/mL | 74.7 ± 30.7 ng/mL | 0.25 h | 26.2 mL/min/kg | 2.04 ± 0.62 h | 2.19 ± 0.9 h | 1.09 ± 0.91 h | 1.81 ± 0.56 L/kg | 317 ± 134 ng·h/mL | 310 ± 131 ng·h/mL | 189 ± 43.2 ng/mL | 0.43 ± 0.12 h | 21.5 mL/min/kg | 1.45 ± 0.24 h | 1.59 ± 0.49 h | 1.2 ± 0.62 h | 2.15 ± 1.21 L/kg | 461 ± 90.4 ng·h/mL | 457 ± 91.2 ng·h/mL | Cmax [1, 6]: 322 ± 55.5 ng/mL; Tmax [1, 6]: 0.46 ± 0.17 h; CL/F [1, 6]: 27.3 mL/min/kg; MRT last [1, 6]: 1.39 ± 0.43 h; MRT inf [1, 6]: 1.49 ± 0.55 h; half-life [1, 6]: 1.27 ± 0.72 h; Vd/F [1, 6]: 3.02 ± 2.01 L/kg; time to reach maximum plasma concentration (Cmax) ([1]; rats, after gavage administration of cinobufacini capsule): ≤ 60 min; concentrations in most rat plasma samples relative to LLOQ [2]: far below the LLOQs; detection in rat plasma [2]: could be detected; Stability during 24 h at 4°C, RE [3, 7]: −8.5%; Stability during 24 h at 4°C, RE ([3]; low QC level (4.99–5.00 ng/ml)): 3.3%; Stability during 24 h at 4°C, RE [3, 8]: −8.6%; −80°C for 30 days, RE [3, 7]: 1.4%; −80°C for 30 days, RE ([3]; low QC level (4.99–5.00 ng/ml)): 8.7%; −80°C for 30 days, RE [3, 8]: −12.6%; Three freeze–thaw cycles, RE [3, 7]: 0.8%; Three freeze–thaw cycles, RE ([3]; low QC level (4.99–5.00 ng/ml)): −7.7%; Three freeze–thaw cycles, RE [3, 8]: −10.1%
2 | C[C@]12CC[C@H](O)C[C@H]1CC[C@@H]1[C@@H]2C(=O)[C@@H](O)[C@]2(C)[C@@H](c3ccc(=O)oc3)CC[C@]12O [PBG, pseudobufarenogin] | 13.8 ± 5.4 ng·h/mL | 13.3 ± 4.42 ng·h/mL | 9.3 ± 3.04 ng/mL | 0.25 h | 33.5 mL/min/kg | 2.4 ± 0.63 h | 2.76 ± 1 h | 1.52 ± 0.98 h | 7.15 ± 2.16 L/kg | 28.6 ± 6.25 ng·h/mL | 28.4 ± 6.26 ng·h/mL | 24.5 ± 7.32 ng/mL | 0.4 ± 0.22 h | 30.8 mL/min/kg | 1.49 ± 0.08 h | 1.54 ± 0.11 h | 1.03 ± 0.61 h | 2.65 ± 1.51 L/kg | 47.7 ± 9.78 ng·h/mL | 47.3 ± 9.4 ng·h/mL | Cmax [1, 6]: 42.8 ± 10.2 ng/mL; Tmax [1, 6]: 0.32 ± 0.12 h; CL/F [1, 6]: 36.7 mL/min/kg; MRT last [1, 6]: 1.47 ± 0.39 h; MRT inf [1, 6]: 1.57 ± 0.39 h; half-life [1, 6]: 1.96 ± 0.67 h; Vd/F [1, 6]: 5.65 ± 1.61 L/kg; concentrations in most rat plasma samples relative to LLOQ [2]: far below the LLOQs; detection in rat plasma [2]: could be detected; Stability during 24 h at 4°C, RE [3, 7]: 10.2%; Stability during 24 h at 4°C, RE ([3]; low QC level (4.99–5.00 ng/ml)): 6.6%; Stability during 24 h at 4°C, RE [3, 8]: 12.0%; −80°C for 30 days, RE [3, 7]: 4.7%; −80°C for 30 days, RE ([3]; low QC level (4.99–5.00 ng/ml)): 8.3%; −80°C for 30 days, RE [3, 8]: 7.5%; Three freeze–thaw cycles, RE [3, 7]: 7.7%; Three freeze–thaw cycles, RE ([3]; low QC level (4.99–5.00 ng/ml)): 4.4%; Three freeze–thaw cycles, RE [3, 8]: 13.3%
